In the NIST ThermoML archive (doi:10.1021/je900333c):
± gives the expanded uncertainty stated by the source.

Test: relative permittivity at zero frequency (dimensionless); mn = molality of the nth substance listed, in mol/kg
Conditions: 101 kPa, Liquid, dielectric constant meter

NCC(=O)O [2-aminoacetic acid] + O
relative permittivity at zero frequency
Conditions	278.15 K	283.15 K	288.15 K	293.15 K	298.15 K	303.15 K	308.15 K	313.15 K
m1 = 0.1	88.4 ± 0.2	86.4 ± 0.2	84.5 ± 0.2	82.6 ± 0.2	80.7 ± 0.2	78.8 ± 0.2	76.9 ± 0.2	75 ± 0.2
m1 = 0.15	89.5 ± 0.2	87.5 ± 0.2	85.6 ± 0.2	83.6 ± 0.2	81.7 ± 0.2	79.7 ± 0.2	77.8 ± 0.2	75.8 ± 0.2
m1 = 0.2	90.6 ± 0.2	88.6 ± 0.2	86.6 ± 0.2	84.6 ± 0.2	82.6 ± 0.2	80.6 ± 0.2	78.5 ± 0.2	76.4 ± 0.2
m1 = 0.25	91.6 ± 0.2	89.6 ± 0.2	87.6 ± 0.2	85.6 ± 0.2	83.5 ± 0.2	81.4 ± 0.2	79.2 ± 0.2	77 ± 0.2
m1 = 0.3	92.8 ± 0.2	90.7 ± 0.2	88.7 ± 0.2	86.5 ± 0.2	84.3 ± 0.2	82.1 ± 0.2	79.7 ± 0.2	77.2 ± 0.2
